What all share (experiment): inhibition of tumour cell growth, NCI panel, 48 h
The test system of assay [1] is TK-10 renal.
The subject of assay [2] is SK-MEL-28 melanoma.
Assay [3] relates to NCI-H460 lung.
Assay [4] has as its system IGROV1 ovarian.
In assay [5] the test system is SNB-19 CNS.
The subject of assay [6] is SF-539 CNS.
Assay [7] has as its system UACC-257 melanoma.
The subject of assay [8] is SF-268 CNS.
Assay [9] deals with OVCAR-5 ovarian.
Assay [10] concerns HOP-62 NSCLC.

Drawing on PubChem BioAssay (NCI), this text covers GI50 and TGI for twelve compounds.

Where “and” joins values, the source holds several entries; their conditions need not be identical. Equal entries are not always repeated.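 Cells were grown in 96-well plates and exposed to each compound for 48 hours at five concentrations; endpoints were interpolated linearly between bracketing concentrations, or set to the highest concentration if not reached. Here, GI50 denotes the concentration required for 50% inhibition of growth. TGI: concentration producing complete growth inhibition.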

For `CN(C)CCCN1c2ccccc2Sc2ccc(C(F)(F)F)cc21`, the GI50 was 1.77 µM in [1]; 1.68 µM in assay [2]; 1.6 µM in assay [3]; 1.67 µM in assay [4]; 1.71 µM in assay [5]; 1.83 µM in assay [6]. Further, the GI50 in assay [7] was 1.62 µM; in assay [8], 1.75 µM; in assay [9] it was 1.63 µM. Also, the TGI was 3.24 µM and 28.8 µM and 31.6 µM in assay [1]; 3.31 µM and 29.3 µM and 30.1 µM in assay [4]; 3.27 µM and 28.8 µM and 30.3 µM in [5]; 3.49 µM and 29.5 µM and 26.7 µM in assay [7]; 3.94 µM and 31.8 µM and 29.2 µM in [8]; 3.25 µM and 31.6 µM in assay [9].

Turning to `O=C(/C=C/c1ccccc1)c1ccc(Cl)cc1Cl`, the TGI in [1] is over 100 µM; in assay [3] it was 33.4 µM; in [4], 40.5 µM; in [5], 65.2 µM; in [6], 37.9 µM; in assay [7] it was 63.8 µM. Moreover, the values for the TGI in assay [8], in assay [9] and in assay [10] were 59.8 µM, 39.5 µM and over 100 µM, respectively.

For the compound `C=CCC(N[C@@H](CO)c1ccccc1)c1ccc2ccccc2n1` (stereo not given in full), the GI50 is over 100 µM in assay [1]; over 100 µM in assay [2]; 29.9 µM in [4]; over 100 µM in [6]; 32.4 µM in assay [7]; over 100 µM in [9]. In addition, the GI50 in assay [10] is over 100 µM. The TGI in [1], in assay [2], in [4], in [6], in [7] and in assay [9] was over 100 µM each time. This compound also displayed a TGI in assay [10] of over 100 µM.

`COC(=O)C(=O)C(C(=O)C(=O)Nc1ccc([N+](=O)[O-])cc1)c1nc2ccccc2[nH]c1=O` (stereo not given): the TGI in assay [1], in [2], in [3], in assay [4], in assay [5] and in assay [7] was over 100 µM in each case. Further, the TGI in assay [8] and in assay [10] was over 100 µM each time.

On to `O=C(N/C(=C\c1ccc([N+](=O)[O-])cc1)c1nc2ccccc2s1)c1ccccc1`, for which the TGI in assay [1] was 61.9 µM; in assay [2], over 100 µM; in assay [4], over 100 µM; in assay [5], over 100 µM; in [6] it was 55.1 µM; in assay [7], 85.2 µM. In addition, the TGI was 56.2 µM in [8], over 100 µM in [9] and over 100 µM in [10].

As to `N=C(N)c1ccc2oc3ccc(C(=N)N)cc3c(=O)c2c1`, the TGI in assay [1], in [2], in assay [3], in assay [4], in assay [5] and in assay [6] was over 100 µM in each case. Moreover, the TGI in assay [7], in assay [8] and in assay [9] was over 100 µM throughout.

Consider `COC(=O)CC1(O)C(=O)OCc2c1cc1n(c2=O)Cc2c-1nc1ccccc1c2OC` (stereo not given), for which the TGI in assay [1] is over 100 µM; in [2], over 100 µM; in assay [4], over 74.3 µM; in [5], 66.2 µM; in [6], 0.681 µM; in [7], over 100 µM. In addition, the TGI was over 34 µM in assay [8], over 100 µM in assay [9] and 0.358 µM in [10].

In the case of `Cc1cc(N(CCC#N)CCC#N)ccc1/C=C(\NC(=O)/C=C/c1ccccc1)C(=O)Nc1ccccc1Cl`, the TGI in [2], in [3], in [4], in [5], in assay [6] and in [7] was over 100 µM each time. For the same compound, the TGI in [8] and in [9] was over 100 µM each time.

In the case of `CC(C)(C)N/N=C(/Cc1nc2c3c(ccc2[nH]c1=O)C(=O)c1ccccc1C3=O)C(=O)NC1=C(Cl)C(=O)c2ccccc2C1=O`, the TGI was over 100 µM in assay [2]; 31.3 µM in [3]; over 100 µM in [4]; over 100 µM in [5]; over 100 µM in assay [6]; over 100 µM in assay [7]. The TGI in assay [8] was 43.5 µM; in assay [9] it was over 100 µM.

Turning to `CCCCCCCCCCCC/C=C\CC[C@@H](O)[C@H](O)CC[C@H](O)[C@@H]1CC[C@@H](CCCCCCCC2=C[C@H](C)OC2=O)O1`, the GI50 is 10 µM in assay [1]; 20.2 µM in assay [2]; 7.09 µM in assay [4]; 9.85 µM in [5]; 1.94 µM in assay [7]; 14.2 µM in assay [8]. The TGI is 28.6 µM in assay [1]; 56.3 µM in [2]; 26.6 µM in [3]; 28.1 µM in [4]; 29.3 µM in assay [5]; 4.21 µM and 19.6 µM in assay [7]. Also, the TGI in assay [8] worked out at 38 µM; in assay [9], 38.4 µM.

`CCc1ccc2c(c1)C(=O)c1c-2n(CCCN)c(=O)c2cc(OC)c(OC)cc12`: the GI50 in [1] is 1.74 µM; in assay [2] it was 1.77 µM; in assay [3] it was 1.85 µM; in assay [4], 1.76 µM; in [5], 1.85 µM; in [6], 1.64 µM. Moreover, the values for the GI50 in assay [7], in assay [9] and in assay [10] were 19.5 µM, 1.82 µM and 1.84 µM, respectively. The TGI in assay [1] is 3.28 µM; in assay [2] it was 3.19 µM; in assay [3], 3.86 µM; in assay [4], 3.36 µM; in [5] it was 3.46 µM; in assay [6], 3.07 µM. Besides, the TGI was determined as 43.6 µM in assay [7], 3.24 µM in assay [9] and 3.29 µM in assay [10].

As to `Cc1cc(NCCCCCCCNc2cc(C)nc3cc(N)ccc23)c2ccc(N)cc2n1`, the TGI in [1], in [2], in assay [3], in [5], in assay [6] and in assay [7] was over 100 µM throughout. For the same compound, the TGI in assay [8], in [9] and in [10] was over 100 µM each time.
